Source: patent US9826732B2, “Composition for cryopreservation of cells and tissues” (Bio Verde Inc., priority 2008, dated 2017)

Assays:
Assay type in all cases: cell-based
L929 cells [1] = assay: Toxicity test, MTT assay, 50% cell growth inhibition; settings: 48 hours culture with polymer
Experimental: Toxicity test was performed on L929 cells. The cells having been suspended in a culture medium of DMEM with 10% fetal bovine serum are seeded in 96-well plates (1.0×10^3 cells/well) and cultured at 37° C. for 72 hours. Thereafter, each of ε-poly-L-lysine and the modified poly-lysines having been added with varying concentrations of succinic anhydride was added to the culture media to attain final concentrations of 0-10%.

L929 cells [2] = assay: Thawed L929 cells seeded directly without dilution or washing, cultured 24 hours; settings: thawed liquid seeded directly, no dilution nor washing, FIG. 3-1, 3-2
Experimental: Meanwhile, the cryopreservation liquid containing the L929 cells was frozen, thawed and directly seeded in 12-well plates and cultured at 37° C. for 24 hours. In detail, the cells were cryopreserved in the 7.5% solution of the PLL succinic anhydride 63% and thawed as in EXAMPLE 2, except that no dilution nor washing was made for the liquid or the cells, and the liquid containing the cells was directly transferred to the plates for culturing.

[3] = tested on: Rat mesenchymal stem cells (RMSC); assay: Cryopreservation of rat mesenchymal stem cells, survival after thawing
[4] = tested on: CD34-expressing hematopoietic cells; assay: Cryopreservation of umbilical cord blood, CD34 flow cytometry; settings: human cord blood; −80° C. for three months
Experimental: Umbilical cord blood was collected from human umbilical cord by a 7 mL plastic vacuum blood sampling tube (Venoject II, Terumo Corporation) loaded with 10.5 mg anticoagulant (EDTA2Na). […] Then the cord blood was quickly thawed in a water bath at 37° C., and a sample of cord blood without dilution was analyzed with respect to the expression of the surface marker, CD34, by flow cytometry. The number of hematopoietic cells expressing CD34 was measured according to the standard method described in the literature (A. Higuchi et al., J. Biomed. Mater. Res., 68A, the fixed method of 34-42 (2004)). Thus the number of CD34-expressing hematopoietic cells was estimated according to the protocol in the manual (International Hemotherapeutics and Transplantation Society ISHAGE guideline) using Stem-Kit (Beckman-Coulter Corporation). Even after the three months of cryopreservation, number of counted cells of the CD34-expressing hematopoietic cells was estimated to be about 70% of that on the first day when the cord blood was added with the PLL succinic anhydride 63% was added by 7.5%; whereas, when the cord blood in a state of 10% DMSO solution was cryopreserved, number of the CD34-expressing hematopoietic cells was estimated to be about 20% of that on the first day.

observation of cells after 24 hours culture (L929 cells [2]): apparently round in shape and dead
Structure (SMILES): C[S+](C)[O-] [DMSO, dimethylsulfoxide]
IC50 (50% Cell-growth-inhibition Concentration) (L929 cells [1]): 2.035 ± 0.017%
survival rate, 6 hours later ([3]; 6 hours after thawing): 88.3 ± 1.1
survival rate, 24 hours later ([3]; 24 hours after thawing): 92.8 ± 3.5
survival rate, Immediately ([3]; immediately after thawing): 92.3 ± 4.3
number of CD34-expressing hematopoietic cells relative to that on the first day [4]: about 20%
